Article PMC8151848, “Tambjamines and Prodiginines: Biocidal Activity against Trypanosoma cruzi” (Pharmaceutics, 2021)
Read-outs that look alike come from different tables or passages of the source.

Assays:
[1] = Cytotoxicity assay (resazurin) in L-929 fibroblasts; type: cell-based, mouse; conditions: mouse, L-929, 16 µM, n = 9, read-out: % Cytotoxicity ± SD
From the text: (§1) Mouse L-929 fibroblasts (NCTC clone 929, ECACC 88102702) were used for both drug toxicity and infection assays. Cell line was obtained from Dr. Concepció Soler, Dept. Pathology & Experimental therapeutics, Faculty of Medicine and Health Sciences, University of Barcelona, Spain. Human hepatocarcinoma Hep G2 cells (American Type Culture Collection (ATCC HB-8065)) were employed only in the drug toxicity assays and were obtained from Dr. Neus Agell, Cell Biology Research Group, Faculty of Medicine and Health Sciences, University of Barcelona, Spain.
(§2) Cells were seeded by trypsinization in 96-well microplates (L-929: 4 × 10^3 cells/well; Hep G2: 1.5 × 10^4 cells/well) and incubated for 24 h at 37 °C to allow cell attachment. On the following day, the medium was discarded and replaced with a fresh medium containing the different concentrations of the drugs. Hep G2 cells were treated with concentrations of 100, 10, and 1 µM of the different drugs, while L-929 cells were treated with a wider range of concentrations in order to calculate the IC50 value (the drug concentration that inhibits 50% of cell growth). Medium, growth, and drug blanks were used in each test as controls. Plates were incubated again for another 24 h. After treatment, 20 µL of resazurin diluted in 1X phosphate-buffered saline (PBS; Sigma Aldrich) was added at a final concentration of 70 µM. The plates were incubated for another 24 h, after which fluorescence was measured in a microplate reader (FLUOstar OPTIMA, BMG LABTECH GmbH, Ortenberg, Germany) at an excitation wavelength of 530 nm and an emission wavelength of 590 nm. Each concentration was tested in triplicate and the experiments were repeated three times independently. Results indicated the percentage of toxicity (% T value). (3) % Toxicity=100−(AE−AEB)/(AC−ACB)×100 where AE is the absorbance of the experimental group, AEB the absorbance of the drug blank, AC the absorbance of the untreated cells, and ACB the absorbance of the culture medium blank. For the L-929 fibroblasts, the IC50 values (the drug concentration that inhibits 50% of cell growth) were calculated for each compound using the GraphPad Prism software.

[2] = Cytotoxicity assay (resazurin) in Hep G2 cells; type: cell-based, human; conditions: human, n = 9; for cytotoxicity at 24 h, 1 µM: Hep G2, 1 µM, read-out: Cytotoxicity (% cell growth inhibition) at 1 µM ± SD; for cytotoxicity at 24 h, 10 µM: Hep G2, 10 µM, read-out: Cytotoxicity (% cell growth inhibition) at 10 µM ± SD; for cytotoxicity at 24 h, 100 µM: Hep G2, 100 µM, read-out: Cytotoxicity (% cell growth inhibition) at 100 µM ± SD
From the text: as §1
as §2, with “Hep G2 cells were treated with concentrations of 100, 10, and 1 µM of the different drugs, while L-929 cells were treated with a wider range of concentrations in order to calculate the IC50 value (the drug concentration that inhibits 50% of cell growth).” left out, “For the L-929 fibroblasts, the IC50 values (the drug concentration that inhibits 50% of cell growth) were calculated for each compound using the GraphPad Prism software.” left out

[3] = test system: epimastigotes of T. cruzi; assay: Epimastigote susceptibility assay (combined therapy with benznidazole); type: cell-based, Trypanosoma cruzi; conditions: combination of benznidazole with compound at 0.25x IC50
Experimental: To assess the anti-epimastigote effect of the compounds in combination with benznidazole, fixed concentrations of each compound were added to a 96-well microplate previously filled with serial dilutions of benznidazole (0.06–128 µM). These fixed concentrations were calculated based on the IC50 values previously obtained for each drug and corresponded to 4x IC50, 2x IC50, IC50, 0.75x IC50, 0.5x IC50, 0.25x IC50. Each well was inoculated with 100 µL of the epimastigotes (2.5 × 10^5/mL) obtained from the exponential growth phase and the plates were incubated for 72 h at 28 °C. Drug blanks, medium, and growth wells were included in each assay as controls. Afterward, 50 µL of CPRG diluted in 0.9% Triton X-100 solution were added at a final concentration of 200 µM and the plates were returned to the incubator for another 3 h at 37 °C. After incubation, absorbance was read at 595 nm and the data were analyzed. All experiments were repeated at least two times independently and each combination was tested in duplicate.
The results are expressed as the IC50 values obtained with each drug combination. To evaluate the interaction of benznidazole with these compounds, fractional inhibitory concentration (FIC) values were calculated as follows:
FIC of compound A (FIC A) = IC50 of A in combination/IC50 of A alone; while FIC of compound B (FIC B) = IC50 of B in combination/IC50 of B alone.
Finally, the FIC index (FICi) was calculated as the sum of FICs using the following formula: FICi=FIC A+FIC B
FICi values were interpreted according to the criteria established by Simoes-Silva et al.: FICi ≤ 0.5 indicates synergism; FICi > 0.5 and ≤ 4 indicates an additive interaction (no interaction); and FICi > 4 indicates antagonism.

[4] = L-929 fibroblasts (NCTC clone 929)
[5] = Hep G2 hepatocarcinoma cells (ATCC HB-8065)

SMILES | cytotoxicity at 24 h, 16 µM [1, 4] | cytotoxicity at 24 h, 1 µM [2, 5] | cytotoxicity at 24 h, 10 µM [2, 5] | cytotoxicity at 24 h, 100 µM [2, 5] | cytotoxicity at 24 h, 16 µM [1] | FICi [3] | cytotoxicity at 24 h, 10 µM [2] | cytotoxicity at 24 h, 100 µM [2]
O=C(Cn1ccnc1[N+](=O)[O-])NCc1ccccc1 [Benznidazole, reference compound] | 0% | 0% | 0.44 ± 0.61% | 0.18 ± 0.08% |  |  |  | 
CCCCCC1=C/C(=C/c2[nH]c(-c3ccc[nH]3)cc2OC)N=C1C [Natural prodigiosin, prodigiosin] |  |  |  |  | 95.8 ± 0.09% | 0.81 |  | 
CCCCCC1=C/C(=C/c2[nH]c(-c3ccc[nH]3)cc2OC)N=C1C [Synthetic prodigiosin, prodigiosin] |  |  |  |  |  | 0.73 | 90.5 ± 0.82% | 95.2 ± 0.94%
CCc1c(-c2ccc[nH]2)[nH]c(/C=N/C2CCCCC2)c1C [MM3] | 88.4 ± 2.75% | 0.99 ± 0.92% | 24.9 ± 8.92% | 94.36 ± 0.5% |  | 0.79 |  | 
CCc1c(-c2ccc[nH]2)[nH]c(/C=N/c2ccc(C(C)(C)C)cc2)c1C [MM4] | 64.2 ± 10.5% | 0% | 19.1 ± 3.94% | 85.2 ± 9.91% |  | 0.70 |  | 
COC1=CC(c2cc3ccccc3[nH]2)=N/C1=C\c1[nH]c(C)cc1C [Obatoclax, reference compound] | 63.5 ± 1.63% | 10.4 ± 4.8% | 63.3 ± 16.9% | 74.8 ± 4.06% |  | 1.80 |  | 
